In patent EP0084678B1, “New compound having analgesic, antiinflammatory and mucoregulating activities, process for its production and relative pharmaceutical compositions” (AUSONIA FARMACEUTICI S.r.l., priority 1982, dated 1983):

How the values were obtained:
[1] = Acute toxicity (Litchfield and Wilcoxon method), mouse; settings: Swiss, in vivo
Excerpt: (§1) The acute toxicity has been determined in Swiss mouse and in Wistar rat for different administration routes, according to the method of Litchfield J.T. and Wilcoxon [J. Pharm. Exp. Therap. 96, 99―113, (1949)].
(§2) The results obtained are reported in the following Table I; from the same it can be pointed out how AFP 696 is endowed with a very low acute toxicity.

[2] = Acute toxicity (Litchfield and Wilcoxon method), rat; settings: Wistar, in vivo
Excerpt: as §1, §2

male Wistar rats = assay: Bronchosecretogogue activity (Mawatari technique); assay type: in vivo, rat; settings: 500 mg/kg/os, FlNa = Sodium fluoresceine
Excerpt: The bronchosecretogogue activity has been determined in male Wistar rats by per os administration according to the method of Mawatari [Mawatari H., Kagoshima Daigaku Igaku-Zasshi, 27, 561 (1976)], comparing AFP-696 with carboxymethylcysteine and sobrerol at the doses hereinafter stated.

male rabbit = assay: Mucosecretolytic activity (technique of Giraldez et al.); assay type: in vivo; settings: 500 mg/kg/os
Excerpt: The mucosecretolytic activity has been studied in the male rabbit according to the technique of Giraldez, Grass and Bruseghini (Abstr. Comp. Int. Pharm. N. 1086-Paris 1978), by administration by the oral route, comparing AFP-696 with carboxymethylcysteine and sobrerol at the dose hereinafter stated.

[3] = system: subplantar edema induced by carrageenin; assay: Antiinflammatory activity, subplantar edema by carrageenin; assay type: in vivo; settings: rat; for MEAN LIMB VOLUME AT DIFFERENT HOURS AFTER TREATMENT 0: hour 0; for MEAN LIMB VOLUME AT DIFFERENT HOURS AFTER TREATMENT 1: hour 1; for MEAN LIMB VOLUME AT DIFFERENT HOURS AFTER TREATMENT 2: hour 2; for MEAN LIMB VOLUME AT DIFFERENT HOURS AFTER TREATMENT 3: hour 3; for MEAN LIMB VOLUME AT DIFFERENT HOURS AFTER TREATMENT 4: hour 4; for MEAN LIMB VOLUME AT DIFFERENT HOURS AFTER TREATMENT 5: hour 5; for AREA Absolute value: limb volume over 5 hours
Protocol: Tests have been performed on the rat, employing the test of the subplantar edema induced by carrageenin. […] and, for comparison, ASA, have been administered by oral route 30 minutes before carrageenin, at the doses hereinafter stated. After edema induction, the animals of each group have been controlled, every 60 minutes for 5 consecutives hours, in order to point out the evolution of the inflammatory process.

gastric mucose = assay: Gastrolesive action; assay type: in vivo; settings: rats fasting since 18 hours, 5 hours 30 minutes after treatment
Protocol: Rats fasting since 18 hours have been treated by oral route with AFP-696 and, for comparison, with acetylsalicylic acid, at the doses hereinafter stated. 5 Hours and 30 minutes after treatments, the animals have been sacrificed and the stomach has been withdrawn for gastric mucose examination.

[4] = system: writhings by phenylquinone; assay: Analgesic activity, writhings by phenylquinone; assay type: in vivo; settings: mouse; for % Inhibition in comparison with controls: writhings
Protocol: The test of writhings by phenylquinone in the mouse has been used. AFP-696 has been administered by oral route at the dose of 500 mg/kg in comparison with acetylsalicylic acid at the dose of […].
The two drugs have been administered per os 30 minutes after intraperitoneal injection of phenil- quinone.

[5] = system: cough induced by citric acid aerosol; assay: Anti-cough activity, cough induced by citric acid aerosol; assay type: in vivo, rabbits; settings: cough strokes
Protocol: The anti-cough activity of AFP-696 has been assessed after administration by endoperitoneal route (30% in tween) on rabbits of both sexes, weighing […], according to the method of the cough induced by citric acid aerosol administration, and evaluating the mean number of cough strokes in comparison with the same basal values (Boura and coil. - Prog. Brit. Pharmac. Soc. Apr. 1970). As reference standard a group of codeine treated animals at the dose of 12.5 mg/kg has been used.

[6] = Pharmacokinetics, plasma and lung levels by gas chromatography; assay type: in vivo; settings: rats
Protocol: Two groups of rats have been treated per os, by gastric tube, with AFP-696 at the dose of 100 mg/kg and acetylsalicylic acid at the dose of 54 mg/kg. At the moment of treatment rats were fasting since 18 hours. Rats have been then sacrificed in groups of 4 at different times: 30 min., 1 h, 2 h, 4 h, 6 h.
The concentration both of unchanged products and of their metabolites have been measured by gaschromatography in plasma and in the lung.

[7] = Solubility of the isolated product; assay type: physicochemical
Protocol: To 90 g of ASA in 500 ml of benzene, 120 g of thionyl chloride are added. The mixture is refluxed for three hours. At the end, the benzene is evaporated under reduced pressure to dryness. The acetylsalicyclic acid chloride so obtained is dissolved in 500 ml of anhydrous tetrahydrofuran and added with 80 g of pyridine; to this solution 85 g of sobrerol (di-trans form) are added. The reaction is completed after two hours refluxing. At the end the solvent is evaporated under reduced pressure, the residue is washed with water and extracted with ethyl ether. […] Its structure is confirmed by analytical and spectroscopical data: • Elemental analysis: for C19H24O5 (M.W. = 332.39) • calcd. % C = 68.66; H = 7.28 • found % C = 68.79; H = 7.33. • I.R. Spectrum (liquid film; values of absorption bands are expressed in cm^-1): • stretch 0-H 3550-3400 broad bands • stretch C-H aromatics alifatics 3080-2910 • stretch C = O alifat. ester 1780 • stretch C = O aromat. ester 1730 • stretch C = C 1615 • stretch C(= 0)-O acetate 1145 • stretch C(= 0)-0 arilyc 1255 • H' NMR Spectrum (recorded in CDCI3, internal references TMS; values of chemical shifts are expressed in 6): • 1.2 (d, 6H, 2(CH3)); • 1.8 (s, 3H, =C-CH3); • 1.4-2.2 (m, 6H, CH2-CH-CH2, OH mobile); • 2.3 (s, 3H, CO-CH3); • 5.3 (m, 1H, CH―O―CO); • 5.8 (m, 1H, CH=C-CH3); • 7-7.7 (m, 3H aromatics); • 8 (double d, 1H aromatic). […]

For `CC(=O)Oc1ccccc1C(=O)OC1CC(C(C)(C)O)CC=C1C` (stereo not drawn) [AFP-696, 2-acetoxybenzoate of 2-methyl-5-(1-hydroxy-1-methylethyl)-cyclohexen-2-yl], the LD50 ([1]; ip) was 1600 mg/kg, the LD50 ([1]; oral, os) was 3500 mg/kg and the LD50 ([2]; ip) was 1950 mg/kg. The LD50 ([2]; oral, os) was > 4000 mg/kg, the “% Increase of FlNa (*) in comparison with controls” value (male Wistar rats) was 63.6% and the “% Increase of secretion in comparison with controls” value (male rabbit) was 39.5%. The “AREA % Inhibition in comparison with controls” value ([3]; 500 mg/kg os) was 33.0%, the “MEAN LIMB VOLUME AT DIFFERENT HOURS AFTER TREATMENT 0” value ([3]; 500 mg/kg os) was 24.1 and the “MEAN LIMB VOLUME AT DIFFERENT HOURS AFTER TREATMENT 1” value ([3]; 500 mg/kg os) was 28.1. The “MEAN LIMB VOLUME AT DIFFERENT HOURS AFTER TREATMENT 2” value ([3]; 500 mg/kg os) was 31.4, the “MEAN LIMB VOLUME AT DIFFERENT HOURS AFTER TREATMENT 3” value ([3]; 500 mg/kg os) was 37.4 and the “MEAN LIMB VOLUME AT DIFFERENT HOURS AFTER TREATMENT 4” value ([3]; 500 mg/kg os) was 38.1. The “MEAN LIMB VOLUME AT DIFFERENT HOURS AFTER TREATMENT 5” value ([3]; 500 mg/kg os) was 38.1, the “AREA Absolute value” ([3]; 500 mg/kg os) was 183.0 and the “Mean ulcers' size” value (gastric mucose; 150 mg/kg/os) was 0.7 ± 0.4 mm. The “Mean No of writhings” value ([4]; 500 mg/kg os) was 1.3 ± 0.9, the “No animals with writhings” value ([4]; 500 mg/kg os) was 3/10 and the “% Inhibition in comparison with controls” value ([4]; 500 mg/kg os) was 89.8%. For the same compound, the “% Inhibition in comparison with controls” value ([5]; 150 mg/kg, endoperitoneal route (30% in tween)) was 82.4%, the “pulmonary levels of salicylic acid” value ([6]; 100 mg/kg per os vs acetylsalicylic acid 54 mg/kg, lung) was “higher” and the “plasma levels of acetylsalicylic acid in comparison with the administration of acetylsalicylic acid at equimolar doses” value ([6]; 100 mg/kg per os vs acetylsalicylic acid 54 mg/kg, more marked in the first two hours) was “higher”. For the same compound, the “unchanged AFP-696 in plasma” value ([6]; 100 mg/kg per os, at 30 minutes and in some instance also at 1 hour) was “found in plasma”, the “solubility in organic solvents” value ([7]; organic solvents) was “easily soluble” and the solubility in water ([7]; water) was “slightly soluble”.
In the case of `CC(=O)Oc1ccccc1C(=O)O` [Acetylsalicylic acid, acetylsalicylic acid, reference compound], the “AREA % Inhibition in comparison with controls” value ([3]; 250 mg/kg os) is reported as 33.6%, the “MEAN LIMB VOLUME AT DIFFERENT HOURS AFTER TREATMENT 0” value ([3]; 250 mg/kg os) is reported as 24.3 and the “MEAN LIMB VOLUME AT DIFFERENT HOURS AFTER TREATMENT 1” value ([3]; 250 mg/kg os) is reported as 27.4. For the same compound, the “MEAN LIMB VOLUME AT DIFFERENT HOURS AFTER TREATMENT 2” value ([3]; 250 mg/kg os) was 32.2, the “MEAN LIMB VOLUME AT DIFFERENT HOURS AFTER TREATMENT 3” value ([3]; 250 mg/kg os) was 37.8 and the “MEAN LIMB VOLUME AT DIFFERENT HOURS AFTER TREATMENT 4” value ([3]; 250 mg/kg os) was 38.6. For the same compound, the “MEAN LIMB VOLUME AT DIFFERENT HOURS AFTER TREATMENT 5” value ([3]; 250 mg/kg os) was 38.6, the “AREA Absolute value” ([3]; 250 mg/kg os) was 181.28 and the “Mean ulcers' size” value (gastric mucose; 100 mg/kg/os) was 3.9 ± 1.2 mm. For the same compound, the “Mean No of writhings” value ([4]; 250 mg/kg os) was 0.6 ± 0.5, the “No animals with writhings” value ([4]; 250 mg/kg os) was 1/10 and the “% Inhibition in comparison with controls” value ([4]; 250 mg/kg os) was 95.3%.
In the case of `COc1ccc2c3c1O[C@H]1[C@@H](O)C=C[C@H]4[C@@H](C2)N(C)CC[C@@]341` [Codeine, codeine, reference compound], the “% Inhibition in comparison with controls” value ([5]; 12.5 mg/kg) is reported as 76.7%.
With `CC1=CCC(C(C)(C)O)CC1O` (stereo not drawn) [Sobrerol, 2-methyl-5-(1-hydroxy-1-methyl-ethyl)-2-cyclohexen-1-ol, reference compound] the “% Increase of FlNa (*) in comparison with controls” value (male Wistar rats) was 33.4% and the “% Increase of secretion in comparison with controls” value (male rabbit) was 36.8%.
